Earlier results in PMC6721965 (Biochimica et biophysica acta. Biomembranes, 2019).

Test system: bacteria
Settings: classification of parent peptides used for hybrid design; ref [4]-[8]

Sequence	Primary cellular localization pattern
ARDNKKTRIWPRHLQLAVRN [DesHDAP1]	membrane translocation
GIGKWLHSAKKFGKAFVGEIMNS [magainin 2]	membrane localization/permeabilization
KGRGKQGGKVRWKAKTRSS [parasin]	membrane localization/permeabilization
TRSSRAGLQWPVGRVHRLLRK [buforin II (BF2), buforin II]	membrane translocation
